In this experiment the target is T1, Free fatty acid receptor 4 (Homo sapiens, UniProt Q5NUL3).
T1 sequence (Q5NUL3 whole entry): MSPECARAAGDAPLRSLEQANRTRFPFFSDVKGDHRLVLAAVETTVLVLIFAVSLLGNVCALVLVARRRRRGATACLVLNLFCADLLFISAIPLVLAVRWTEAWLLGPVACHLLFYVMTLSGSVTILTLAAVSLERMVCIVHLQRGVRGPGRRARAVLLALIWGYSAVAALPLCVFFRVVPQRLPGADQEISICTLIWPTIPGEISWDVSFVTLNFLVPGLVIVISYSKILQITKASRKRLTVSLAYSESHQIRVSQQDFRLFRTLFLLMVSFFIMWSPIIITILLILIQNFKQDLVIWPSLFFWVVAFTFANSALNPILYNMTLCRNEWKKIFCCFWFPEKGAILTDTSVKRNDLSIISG
Nature of the experiment: FLIPR Assay: On the day before the measurement day, CHO cells expressing human GPR120 were plated at 10000 cells per well in a 384-well black plate (#3702, Corning) and incubated overnight in a CO2 incubator. On the day of the measurement, 4 μM Fluo-4 AM (fluorescence calcium indicator reagent) was incubated to be introduced into the human GPR120 expression CHO cells in the presence of 0.08% Pluronic F-127 in a CO2 incubator for 90 minutes. To the cells was added the test compound diluted with HBSS solution containing 20 mM HEPES and 2.5 mM probenecid. Variations in the intracellular calcium concentration were measured by Fluorescence Imaging Plate Reader (FLIPR; Molecular Devices) to examine the agonist action, and EC50 values were calculated. Type of experiment: cell-based.
Broadly, the EC50 is the concentration needed to bring the measured effect to its halfway point. In the case of `OCCC1CCC2(CC1)CCN(c1cc(OC(F)(F)F)ccc1Cl)CC2`, the EC50 was 472 nM. In the case of `Cc1cccc(Oc2ccc(C#N)c(N3CCC4(CCC(CC(=O)O)CC4)CC3)c2)n1`, the EC50 is 4220 nM.

Regarding `O=C(O)C[C@@H]1CCC2(CCN(c3cc(OC4CCC4)ccc3F)CC2)OC1`, the EC50 is 3240 nM. For `O=C(O)CC1CCC2(CCN(c3cc(OC(F)(F)F)ccc3F)CC2)OC1` (configuration not stated), the EC50 was 1210 nM.

Turning to `O=C(O)C[C@H]1CCC2(CCN(c3cc(OC4CCC4)ccc3Cl)CC2)OC1`, the EC50 was 1650 nM. For the molecule `COc1cc(F)cc(N2CCC3(CC2)CC(CC(=O)O)CO3)c1` (configuration not stated), the EC50 was 2380 nM.

`Cc1ccnc(Oc2ccc(C#N)c(N3CCC4(CCC(CC(=O)O)CC4)CC3)c2)c1`: the EC50 was 4970 nM.

These data come from ChEMBL document CHEMBL5725500, “Substituted spiropiperidinyl compounds useful as GPR120 agonists” (2017).
